Test results taken from patent US20220088146A1, “Melanocortin Receptor-Specific Peptide Formulations and Methods for Gastrointestinal Tract-Specific Delivery” (Palatin Technologies, Inc., priority 2018, published 2022).
Ends that are not written are not given here.

Columns and labels:
[1] = molecular target: T1, hMC1r (Homo sapiens, UniProt Q01726); assay: Competitive inhibition binding assay using [I125]-NDP-α-MSH, hMC1r membranes; details: human recombinant MC1r, HEK-293 membranes, read-out: MC-1 Ki (average)
T1 sequence (Q01726 whole entry): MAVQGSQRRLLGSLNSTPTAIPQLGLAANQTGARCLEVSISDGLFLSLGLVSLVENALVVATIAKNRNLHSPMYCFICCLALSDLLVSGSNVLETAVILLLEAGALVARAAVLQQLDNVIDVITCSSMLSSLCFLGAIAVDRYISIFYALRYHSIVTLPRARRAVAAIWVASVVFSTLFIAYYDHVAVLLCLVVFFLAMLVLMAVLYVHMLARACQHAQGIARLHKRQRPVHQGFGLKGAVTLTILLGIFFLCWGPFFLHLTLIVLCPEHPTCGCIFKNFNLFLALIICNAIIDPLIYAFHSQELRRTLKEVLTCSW
Protocol: (§1) A competitive inhibition binding assay was performed using membrane homogenates prepared from HEK-293 cells that express recombinant hMC1r or hMC4r (in each instance where the h prefix refers to human), or alternatively membrane homogenates from B16-F10 mouse melanoma cells containing endogenous murine MC1r. In the examples that follow, all MC1r and MC4r values are for human recombinant receptors, unless otherwise noted. Assays were performed in 96 well polypropylene round-bottom plates (VWR catalog number 12777-030). […] After incubation for 90 minutes at 37° C., the assay mixture was filtered onto GF/B Unifilter plates (Perkin-Elmer catalog number 6005177) and washed with 3 mL of ice-cold buffer per well. Filters were air dried and 35 μL of scintillation cocktail added to each well. Plates were counted in a Microbeta counter for bound radioactivity. […] Each assay was conducted in duplicate and the actual mean values are described, with results less than 0% reported as 0%. Ki values for peptides of the present invention were determined using Graph-Pad Prism® curve-fitting software.
(§2) All results are expressed in nM except for Emax values, which are percentage values. Peptides with the captioned primary sequence were synthesized and purified as described in Section 7 above, with the resulting peptide having the structure depicted.

[2] = molecular target: MC4r (Homo sapiens, UniProt P32245); assay: Competitive inhibition binding assay using [I125]-NDP-α-MSH, hMC4r membranes; design: expressed in transfected cells; host or cells: HEK-293; details: human recombinant MC4r, HEK-293 membranes, read-out: MC-4 Ki (average)
Chain of MC4r (P32245 whole entry): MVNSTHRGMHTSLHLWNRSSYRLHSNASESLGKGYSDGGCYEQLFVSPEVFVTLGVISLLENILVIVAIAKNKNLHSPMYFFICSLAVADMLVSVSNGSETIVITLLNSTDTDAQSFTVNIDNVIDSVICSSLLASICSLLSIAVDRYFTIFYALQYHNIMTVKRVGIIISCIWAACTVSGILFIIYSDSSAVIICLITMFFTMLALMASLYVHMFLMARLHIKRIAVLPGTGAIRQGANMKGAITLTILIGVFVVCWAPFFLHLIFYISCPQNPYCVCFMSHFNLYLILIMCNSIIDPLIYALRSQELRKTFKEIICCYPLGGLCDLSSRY
Protocol: as §1, §2

[3] = molecular target: T1, hMC1r; assay: Assay for agonist activity: cAMP accumulation in HBL melanoma cells; format: cell-based; design: endogenous in cells; host or cells: HBL human melanoma cells; details: for Emax: HBL, compared to NDP-α-MSH as 100%, read-out: MC-1 Emax (average; cAMP HBL); for EC50: read-out: MC-1 EC50 (average; cAMP HBL)
Protocol: 8.2 Assay for Agonist Activity.
Confluent HBL cells that express hMC1r or HEK-293 cells that express recombinant hMC4r were detached from culture plates by incubation in enzyme-free cell dissociation buffer. Dispersed cells were suspended in Earle's Balanced Salt Solution containing 10 mM HEPES (pH 7.5), 1 mM MgCl2, 1 mM glutamine, 0.5% albumin and 0.3 mM 3-isobutyl-1-methyl-xanthine (IBMX), a phosphodiesterase inhibitor. The cells were plated in 96-well plates at a density of 0.4×10^5 cells per well for HBL cells and 0.5×10^5 cells per well for HEK-293 cells and pre-incubated for 10 minutes. Cells were exposed for 15 minutes at 37° C. to peptides of the present invention dissolved in DMSO (final DMSO concentration of 1%) at a concentration range of 0.05-5000 nM in a total assay volume of 200 μL. […] Data analysis was performed by nonlinear regression analysis with Graph-Pad Prism® software.
as §2

[4] = test system: MC1r; assay: Functional selectivity evaluation at Cerep, MC1r; format: cell-based
[5] = Human clinical microdose study of C14-labeled oral formulation; format: in vivo; details: single oral microdose of C14-labeled Example 9.3 formulated as for Lot 41
Source text: A combination of Eudragit® L100-55, Eudragit® S-100 and Eudragit® FS30D polymethacrylates were selected and utilized at a weight ratio of 23.25:23.0:12.5, where the weight of L100-55 and S-100 was dry weight of solid material, and the weight of FS30D was of a commercially prepared aqueous formulation wherein the 12.5 grams of liquid FS30D contained 3.75 grams polymer, for a weight ratio of polymer of 23.25:23:3.75. The combination of polymethacrylates were placed in acetone and stirred for an extended period. […] The dried material was retrieved, diluted with additional dried polymetacrylate mixture not containing peptide to obtain the desired target concentration in a predetermined quantity of material, and milled to the desired diameter and sieved. The sieved material was placed within a gelatin size 2 capsule to provide an oral formulation.
The oral formulation was administered in a microdose level to 24 subjects, divided into six cohorts of 4 subjects each.
The only radioactive material identified in urine was the C14 labelled phenylalanine.

Row | Ki [1] [nM] | Ki [2] [nM] | Emax [3] [%] | EC50 [3] [nM] | EC50 [4] [nM] | intact peptide in plasma or urine [5] | Compound | peptide levels in fecal samples [5]
1 | 2 | 7370 | 91 | 0.175 |  |  | CCCCC(NC(C)=O)C(=O)N[C@H]1CCC(=O)NCC[C@@H](C(=O)N[C@@H](CCCCN)C(N)=O)NC(=O)[C@H](CCCNC(=N)N)NC(=O)[C@@H](Cc2ccccc2)NC(=O)[C@H](Cc2c[nH]cn2)NC1=O (stereo partly drawn) [Example 9.52, Ac-Nle-cyclo(Glu-His-D-Phe-Arg-Dab)-Lys-NH2] | 
2 | 7 |  | 85 | 0.32 |  |  | CCCCC(NC(C)=O)C(=O)N[C@H]1CCC(=O)NCC[C@@H](C(N)=O)NC(=O)[C@H](CCCNC(=N)N)NC(=O)[C@@H](Cc2ccccc2)NC(=O)[C@H](Cc2c[nH]cn2)NC1=O (stereo partly drawn) [Example 9.44, Ac-Nle-cyclo(Glu-His-D-Phe-Arg-Dab)-NH2] | 
3 | 645 |  | 73 | 44 |  |  | CCCCC(NC(C)=O)C(=O)N[C@H]1CCC(=O)NCC[C@@H](C(N)=O)NC(=O)[C@H](C)NC(=O)[C@@H](Cc2ccccc2)NC(=O)[C@H](Cc2c[nH]cn2)NC1=O (stereo partly drawn) [Example 9.45, Ac-Nle-cyclo(Glu-His-D-Phe-Ala-Dab)-NH2] | 
4 | 0.065 | 860 | 85 | 0.016 |  |  | CCCC[C@H](NC(C)=O)C(=O)N[C@H]1CNC(=O)CCC(=O)NCC[C@@H](C(=O)N[C@@H](Cc2c[nH]c3ccccc23)C(N)=O)NC(=O)[C@H](CCCNC(=N)N)NC(=O)[C@@H](Cc2ccccc2)NC(=O)[C@H](Cc2c[nH]cn2)NC1=O [Example 9.43, Ac-Nle-cyclo(Dap-His-D-Phe-Arg-Dab)-Trp-NH2] | 
5 |  |  |  |  | 980 |  | SYSMEHFRWGKPVGKKRRPVKVYPNGAEDESAEAFPLEF [ACTH, reference compound] | 
6 | 0.8 |  | 72 | 0.115 |  |  | CCCC[C@H](NC(C)=O)C(=O)N[C@H]1CCC(=O)NCCC(C(=O)N[C@@H](Cc2c[nH]c3ccccc23)C(N)=O)NC(=O)[C@H](C)NC(=O)[C@@H](Cc2ccccc2)NC(=O)[C@H](Cc2c[nH]cn2)NC1=O (stereo partly drawn) [Example 9.35, Ac-Nle-cyclo(Glu-His-D-Phe-Ala-Dab)-Trp-NH2] | 
7 | 1 | 4700 | 81 | 0.107 |  | no intact peptide | CCCC[C@H](NC(C)=O)C(=O)N[C@H]1CCC(=O)NC[C@@H](C(=O)N[C@@H](Cc2c[nH]c3ccccc23)C(C)=O)NC(=O)[C@H](CCCNC(=N)N)NC(=O)[C@@H](Cc2ccccc2)NC(=O)[C@H](Cc2c[nH]cn2)NC1=O [Example 9.26, Ac-Nle-cyclo(Glu-His-D-Phe-Arg-Dap)-Trp-OH] | significant and approximately equal levels
